Assay results published in patent US20260092073A1, “NOVEL COMPOUNDS” (Hoffmann-La Roche Inc., priority 2023, published 2026).

What was measured:
[1] = target: T1, hERG cardiac potassium channel (Homo sapiens, UniProt Q12809); test: hERG screening assay (automated patch clamp, CHO-hERG cells); format: cell-based; conditions: CHO crelox hERG cells (CHO cells that express hERG), whole-cell patch clamp, 35-37° C.
T1 construct: Evotec (cryopreserved) ATCC PTA-6812; host or cells: CHO crelox hERG cell line (Chinese hamster)
T1 sequence (Q12809 whole entry): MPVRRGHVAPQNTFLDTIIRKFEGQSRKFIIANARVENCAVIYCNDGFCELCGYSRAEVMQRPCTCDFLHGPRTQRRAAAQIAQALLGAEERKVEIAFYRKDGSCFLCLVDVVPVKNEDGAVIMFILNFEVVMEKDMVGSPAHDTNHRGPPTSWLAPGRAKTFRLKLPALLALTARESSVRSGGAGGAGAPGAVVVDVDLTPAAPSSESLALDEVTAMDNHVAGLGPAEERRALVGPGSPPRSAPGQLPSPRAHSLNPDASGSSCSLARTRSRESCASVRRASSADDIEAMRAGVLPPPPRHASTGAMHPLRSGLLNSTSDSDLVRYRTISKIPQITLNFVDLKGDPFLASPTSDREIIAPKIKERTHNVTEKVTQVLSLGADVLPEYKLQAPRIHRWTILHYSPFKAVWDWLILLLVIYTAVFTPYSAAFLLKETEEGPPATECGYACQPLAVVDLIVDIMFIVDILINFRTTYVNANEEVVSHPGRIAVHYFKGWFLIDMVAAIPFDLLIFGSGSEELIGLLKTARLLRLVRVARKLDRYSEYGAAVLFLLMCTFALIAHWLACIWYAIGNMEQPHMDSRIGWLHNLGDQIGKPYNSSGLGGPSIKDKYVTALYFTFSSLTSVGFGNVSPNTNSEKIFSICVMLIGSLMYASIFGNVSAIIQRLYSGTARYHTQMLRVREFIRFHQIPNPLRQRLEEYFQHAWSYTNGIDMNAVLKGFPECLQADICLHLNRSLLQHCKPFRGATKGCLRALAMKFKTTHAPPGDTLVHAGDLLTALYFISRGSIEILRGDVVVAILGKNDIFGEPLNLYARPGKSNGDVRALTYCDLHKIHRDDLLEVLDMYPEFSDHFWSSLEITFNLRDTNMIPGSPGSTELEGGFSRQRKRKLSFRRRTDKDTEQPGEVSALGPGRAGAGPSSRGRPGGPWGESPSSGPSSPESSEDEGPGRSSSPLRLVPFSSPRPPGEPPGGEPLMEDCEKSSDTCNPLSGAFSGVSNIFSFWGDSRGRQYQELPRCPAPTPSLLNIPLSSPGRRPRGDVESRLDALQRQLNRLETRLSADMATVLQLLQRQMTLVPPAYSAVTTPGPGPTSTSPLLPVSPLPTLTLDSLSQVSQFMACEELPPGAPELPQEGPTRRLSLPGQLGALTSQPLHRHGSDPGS
Source text: In the drug development process of small molecules, one of the most frequent adverse side effects, leading to the failure of drugs, is the cardiac arrhythmias. Such failure is often related to the capacity of the drug to inhibit the human ether-à-go-go-related gene (hERG) cardiac potassium channel. Having no or low inhibition of the hERG cardiac potassium channel is therefore considered as beneficial.
The CHO crelox hERG cell line (ATCC reference Nr. PTA-6812, female Chinese hamster cells) was generated and validated at Roche. Ready-to-use frozen instant CHO-hERG cells were cryopreserved at Evotec (Germany) and used directly in the experiments.
The extracellular solution contains (in mM): NaCl 150; KCl 4; CaCl2 1; MgCl2 1; HEPES 10; pH 7.2-7.4 with NaOH, osmolarity 290-330 mOsm. The internal solution contains (in mM): KCl, 10; KF, 100; NaCl, 10; HEPES, 10; EGTA, 20; pH=7.0-7.4 with KOH, osmolarity 260-300 mOsm.
The effects of a compound on hERG K+-currents parameters will be evaluated at 2 concentrations in at least 4 cells.
The hERG test is performed using automated patch clamp system SynchroPatch® 384 (Nanion Technologies GmbH, Germany). K+ currents are measured with the patch-voltage-clamp technique in the whole-cell configuration at 35-37° C.
The amplitudes of IKhERG were recorded in each concentration of drug and they were compared to the vehicle control values (taken as 100%) to define fractional blocks. The concentration-response data were fitted with the following relationship:
Concentration-response curves were fitted by non-linear regression analysis using EworkBook suite (ID Business Solutions Ltd, UK). Data fit was done with the 4 Parameter Logistic Model (fit=(A+(B/(1+((x/C)^D)))), where A=0 and B=100).

[2] = target: T2, NLRP3 (Homo sapiens, UniProt Q96P20); test: Human whole blood IL-1β release assay; format: cell-based; design: Human whole blood in Li-heparin tubes was obtained from healthy donors; from tissue; host or cells: human whole blood from healthy donors; conditions: LPS, nigericin 10 μM, IL-1β by AlphaLisa
T2 sequence (Q96P20 whole entry): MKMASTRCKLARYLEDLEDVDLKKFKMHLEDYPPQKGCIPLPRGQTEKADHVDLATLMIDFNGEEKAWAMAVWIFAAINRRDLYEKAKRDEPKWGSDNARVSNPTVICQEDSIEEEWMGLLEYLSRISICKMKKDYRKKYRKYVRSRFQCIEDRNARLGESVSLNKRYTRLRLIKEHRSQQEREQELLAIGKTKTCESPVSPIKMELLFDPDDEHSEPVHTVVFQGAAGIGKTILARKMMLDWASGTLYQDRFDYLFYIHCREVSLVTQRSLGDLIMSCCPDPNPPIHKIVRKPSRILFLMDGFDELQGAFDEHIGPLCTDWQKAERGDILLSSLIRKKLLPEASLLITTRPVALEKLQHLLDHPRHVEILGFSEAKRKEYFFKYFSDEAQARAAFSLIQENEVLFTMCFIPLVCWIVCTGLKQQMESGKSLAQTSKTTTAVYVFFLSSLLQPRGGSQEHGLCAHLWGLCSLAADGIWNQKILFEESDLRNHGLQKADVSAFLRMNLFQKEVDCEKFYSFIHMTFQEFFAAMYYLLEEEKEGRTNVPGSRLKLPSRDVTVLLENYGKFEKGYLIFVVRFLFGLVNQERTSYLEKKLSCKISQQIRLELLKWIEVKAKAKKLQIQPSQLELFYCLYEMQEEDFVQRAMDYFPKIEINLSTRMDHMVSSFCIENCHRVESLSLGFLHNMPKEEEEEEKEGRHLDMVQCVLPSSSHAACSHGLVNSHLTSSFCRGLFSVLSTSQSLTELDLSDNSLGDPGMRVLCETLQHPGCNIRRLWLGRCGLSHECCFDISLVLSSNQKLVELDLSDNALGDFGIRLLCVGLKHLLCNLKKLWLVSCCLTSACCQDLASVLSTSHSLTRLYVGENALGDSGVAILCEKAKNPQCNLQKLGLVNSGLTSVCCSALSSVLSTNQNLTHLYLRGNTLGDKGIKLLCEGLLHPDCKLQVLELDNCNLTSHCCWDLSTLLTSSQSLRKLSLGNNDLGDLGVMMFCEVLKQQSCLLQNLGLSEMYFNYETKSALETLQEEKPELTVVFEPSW
Experimental: For systemic delivery, the ability to inhibit NLRP3 when the compounds are present within the bloodstream is of great importance. For this reason, the NLRP3 inhibitory activity of a number of compounds in human whole blood was investigated in accordance with the following protocol.
Human whole blood in Li-heparin tubes was obtained from healthy donors from a volunteer donor panel.
Plate out 80 μl of whole blood containing […] of LPS in 96-well, clear bottom cell culture plate (Corning #3585)
Add 10 μl compound (8 points half-log dilution with 10 μM top dose) or vehicle (DMSO 0.1% FAC) to the appropriate wells
(§1) Incubate for 3 hours at 37° C., 5% CO2
Add 10 μl nigericin (Sigma #N7143) (10 μM FAC) to all wells
(§2) Incubate for 1 hr at 37° C., 5% CO2
At the end of the incubation period, spin plates at 300 xg for 5 mins to pellet cells and remove 20 μl of supernatant and add to 96-well v-bottom plates for IL-1β analysis (note: these plates containing the supernatants can be stored at −80° C. to be analysed at a later date)
IL-1β was measured according to the manufacturer protocol (Perkin Elmer-AlphaLisa IL-1 Kit AL220F-5000)
(§3) IC50 data is fitted to a non-linear regression equation (log inhibitor vs response-variable slope 4-parameters)

[3] = target: T2, NLRP3; test: THP-1 cells pyroptosis assay; format: cell-based; design: Seed THP-1 cells (25,000 cells/well) containing 1.0 μg/ml LPS; host or cells: THP-1 cells, LPS-primed, nigericin-stimulated; conditions: LPS 1.0 μg/ml, nigericin 5 μM, resazurin readout
Source text: It is well established that the activation of NLRP3 leads to cell pyroptosis and this feature plays an important part in the manifestation of clinical disease (Yan-gang Liu et al., Cell Death & Disease, 2017, 8(2), e2579; Alexander Wree et al., Hepatology, 2014, 59(3), 898-910; Alex Baldwin et al., Journal of Medicinal Chemistry, 2016, 59(5), 1691-1710; Ema Ozaki et al., Journal of Inflammation Research, 2015, 8, 15-27; Zhen Xie & Gang Zhao, Neuroimmunology Neuroinflammation, 2014, 1(2), 60-65; Mattia Cocco et al., Journal of Medicinal Chemistry, 2014, 57(24), 10366-10382; T. Satoh et al., Cell Death & Disease, 2013, 4, e644). Therefore, it is anticipated that inhibitors of NLRP3 will block pyroptosis, as well as the release of pro-inflammatory cytokines (e.g. […]) from the cell.
THP-1 cells (ATCC #TIB-202) were grown in RPMI containing L-glutamine (Gibco #11835) supplemented with 1 mM sodium pyruvate (Sigma #S8636) and penicillin (100 units/ml)/streptomycin (0.1 mg/ml) (Sigma #P4333) in 10% Fetal Bovine Serum (FBS) (Sigma #F0804). The cells were routinely passaged and grown to confluency (˜10^6 cells/ml). On the day of the experiment, THP-1 cells were harvested and resuspended into RPMI medium (without FBS). The cells were then counted and viability (>90%) checked by Trypan blue (Sigma #T8154). Appropriate dilutions were made to give a concentration of 625,000 cells/ml. To this diluted cell solution was added LPS (Sigma #L4524) to give a […] Final Assay Concentration (FAC). 40 μl of the final preparation was aliquoted into each well of a 96-well plate. The plate thus prepared was used for compound screening.
The following method step-by-step assay was followed for compound screening.
Seed THP-1 cells (25,000 cells/well) containing 1.0 μg/ml LPS in 40 μl of RPMI medium (without FBS) in 96-well, black walled, clear bottom cell culture plates coated with poly-D-lysine (VWR #734-0317)
Add 5 μl compound (8 points half-log dilution, with 10 μM top dose) or vehicle (DMSO 0.1% FAC) to the appropriate wells
as §1
Add 5 μl nigericin (Sigma #N7143) (FAC 5 μM) to all wells
as §2
At the end of the incubation period, spin plates at 300 xg for 3 mins and remove supernatant
Then add 50 μl of resazurin (Sigma #R7017) (FAC 100 μM resazurin in RPMI medium without FBS) and incubate plates for a further 1-2 hours at 37° C. and 5% CO2
Plates were read in an Envision reader at Ex 560 nm and Em 590 nm
as §3

[4] = target: T3, human P-gp (Homo sapiens, UniProt P08183); test: Transcellular human P-gp assay (transfected LLC-PK1 cells); format: in vitro ADME; conditions: LLC-PK1 cells over-expressing human P-gp
T3 construct: expressed in transfected cells; host or cells: LLC-PK1 (porcine kidney epithelial cells)
T3 sequence (P08183 whole entry): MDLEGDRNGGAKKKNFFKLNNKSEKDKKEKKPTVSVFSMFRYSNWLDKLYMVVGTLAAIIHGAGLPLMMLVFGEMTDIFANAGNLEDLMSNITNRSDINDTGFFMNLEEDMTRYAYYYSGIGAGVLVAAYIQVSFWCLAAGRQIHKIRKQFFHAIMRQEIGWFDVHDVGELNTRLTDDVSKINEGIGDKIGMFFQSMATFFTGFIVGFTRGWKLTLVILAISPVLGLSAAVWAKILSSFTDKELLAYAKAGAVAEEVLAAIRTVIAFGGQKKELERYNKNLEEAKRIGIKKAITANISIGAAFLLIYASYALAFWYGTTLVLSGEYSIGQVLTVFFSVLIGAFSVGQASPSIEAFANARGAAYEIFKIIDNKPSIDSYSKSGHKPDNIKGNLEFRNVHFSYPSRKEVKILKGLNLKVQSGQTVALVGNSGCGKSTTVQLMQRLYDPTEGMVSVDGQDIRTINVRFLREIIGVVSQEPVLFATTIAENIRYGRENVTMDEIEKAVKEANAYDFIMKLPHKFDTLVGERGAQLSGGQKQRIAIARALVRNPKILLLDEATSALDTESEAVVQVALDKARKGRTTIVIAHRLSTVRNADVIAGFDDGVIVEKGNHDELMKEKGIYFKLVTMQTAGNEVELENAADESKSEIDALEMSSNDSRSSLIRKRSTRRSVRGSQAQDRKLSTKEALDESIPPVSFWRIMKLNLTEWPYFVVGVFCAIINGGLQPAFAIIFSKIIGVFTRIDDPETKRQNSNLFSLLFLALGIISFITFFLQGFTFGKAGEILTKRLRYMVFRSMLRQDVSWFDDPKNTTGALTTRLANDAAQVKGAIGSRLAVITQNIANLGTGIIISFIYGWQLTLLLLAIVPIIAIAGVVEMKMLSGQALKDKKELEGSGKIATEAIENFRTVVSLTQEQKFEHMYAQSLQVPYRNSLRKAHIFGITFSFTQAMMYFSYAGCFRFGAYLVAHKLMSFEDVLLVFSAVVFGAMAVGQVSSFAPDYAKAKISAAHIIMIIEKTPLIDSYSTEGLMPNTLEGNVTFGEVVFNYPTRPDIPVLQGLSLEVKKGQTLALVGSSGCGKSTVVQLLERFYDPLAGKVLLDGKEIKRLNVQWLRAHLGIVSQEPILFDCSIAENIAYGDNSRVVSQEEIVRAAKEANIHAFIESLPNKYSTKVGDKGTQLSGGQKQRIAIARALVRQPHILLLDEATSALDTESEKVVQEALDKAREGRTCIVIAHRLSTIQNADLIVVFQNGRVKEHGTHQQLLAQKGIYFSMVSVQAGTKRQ
Source text: The general assay uses transfected LLC-PK1 cells (porcine kidney epithelial cells) over-expressing human or mouse P-gp, cultured on 96 well semi-permeable filter membrane plates, where they form a polarized monolayer with tight junctions, and act as a barrier between the apical and basolateral compartment.
P-gp is expressed in the apical-facing membrane of the monolayer. […] J. Pharmacol. Exp Ther., 2021, 376, 322-329.

Row | IC50 [2] | IC50 [3] | efflux ratio ([4]; read-out: ER (efflux ratio)) | Papp ([4]; read-out: Permeability) | Structure (SMILES) | IC20 [1]
1 | 22 nM | 0.6 nM | 4 | 13.5 ×10⁻⁶ cm/s | Cc1cc2c(c(O)c1-c1ccc3oc(N[C@@H]4CCCN(CCO)C4)nc3n1)CCO2 [Example 14, 5-[2-[[(3R)-1-(2-Hydroxyethyl)-3-piperidyl]amino]oxazolo[4,5-b]pyridin-5-yl]-6-methyl-2,3-dihydrobenzofuran-4-ol] | –
2 | 33 nM | 34 nM | – | – | COCc1cc(C#N)cc(O)c1-c1cnc2oc(N[C@@H]3CCCN(CCO)C3)nc2n1 [Example 15, 3-Hydroxy-4-[2-[[(3R)-1-(2-hydroxyethyl)-3-piperidyl]amino]oxazolo[4,5-b]pyrazin-5-yl]-5-(methoxymethyl)benzonitrile;2,2,2-trifluoroacetic Acid] | > 10 µM
3 | 86 nM | 23 nM | – | – | Cc1cc(C#N)cc(O)c1-c1ccc2oc(N[C@@H]3CCCN(CCCc4ncco4)C3)nc2n1 [Example 28, 3-Hydroxy-5-methyl-4-[2-[[(3R)-1-(3-oxazol-2-ylpropyl)-3-piperidyl]amino]oxazolo[4,5-b]pyridin-5-yl]benzonitrile] | –
4 | 124 nM | 7 nM | – | – | Cc1cc(C#N)cc(O)c1-c1cc(F)c2oc(N[C@@H]3CCCN(CCO)C3)nc2n1 [Example 29, 4-[7-Fluoro-2-[[(3R)-1-(2-hydroxyethyl)-3-piperidyl]amino]oxazolo[4,5-b]pyridin-5-yl]-3-hydroxy-5-methyl-benzonitrile] | –

Second part, the compound before the results:

Row | Structure (SMILES) | IC50 [2] | IC50 [3] | efflux ratio ([4]; read-out: ER (efflux ratio)) | Papp ([4]; read-out: Permeability) | IC20 [1]
5 | COCc1cc2c(c(O)c1-c1ccc3oc(N[C@@H]4CCCN(CCO)C4)nc3n1)CCO2 [Example 12, 5-[2-[[(3R)-1-(2-Hydroxyethyl)-3-piperidyl]amino]oxazolo[4,5-b]pyridin-5-yl]-6-(methoxymethyl)-2,3-dihydrobenzofuran-4-ol] | 15 nM | 8 nM | – | – | > 10 µM
6 | Cc1cc2c(c(O)c1-c1cnc3oc(N[C@@H]4CCCN(CCO)C4)nc3n1)CCC2 [Example 18, 5-[2-[[(3R)-1-(2-Hydroxyethyl)-3-piperidyl]amino]oxazolo[4,5-b]pyrazin-5-yl]-6-methyl-indan-4-ol] | – | 2 nM | – | – | 6.3 µM
7 | CCN1C[C@@H](O)C[C@@H](Nc2nc3nc(-c4c(C)cc5c(c4O)CCO5)cnc3o2)C1 [Example 25, (3S,5R)-1-Ethyl-5-[[5-(4-hydroxy-6-methyl-2,3-dihydrobenzofuran-5-yl)oxazolo[4,5-b]pyrazin-2-yl]amino]piperidin-3-ol] | 16 nM | 2 nM | – | – | –
8 | CCN1C[C@@H](O)C[C@@H](Nc2nc3nc(-c4c(C)cc(C#N)cc4O)cc(F)c3o2)C1 [Example 27, 4-[2-[[(3R,5S)-1-Ethyl-5-hydroxy-3-piperidyl]amino]-7-fluoro-oxazolo[4,5-b]pyridin-5-yl]-3-hydroxy-5-methyl-benzonitrile] | 95 nM | 6 nM | – | – | –
9 | CCN1C[C@@H](O)C[C@@H](Nc2nc3nc(-c4c(C)cc(C#N)cc4O)cc(OC)c3o2)C1 [Example 30, 4-[2-[[(3R,5S)-1-Ethyl-5-hydroxy-3-piperidyl]amino]-7-methoxy-oxazolo[4,5-b]pyridin-5-yl]-3-hydroxy-5-methyl-benzonitrile] | 48 nM | 13 nM | – | – | –
